# pIC50: −log10 of the molar value.
# Target: T1, PPARγ (Homo sapiens, UniProt P37231)
# T1 construct: made in house
# T1 sequence (P37231 1-505): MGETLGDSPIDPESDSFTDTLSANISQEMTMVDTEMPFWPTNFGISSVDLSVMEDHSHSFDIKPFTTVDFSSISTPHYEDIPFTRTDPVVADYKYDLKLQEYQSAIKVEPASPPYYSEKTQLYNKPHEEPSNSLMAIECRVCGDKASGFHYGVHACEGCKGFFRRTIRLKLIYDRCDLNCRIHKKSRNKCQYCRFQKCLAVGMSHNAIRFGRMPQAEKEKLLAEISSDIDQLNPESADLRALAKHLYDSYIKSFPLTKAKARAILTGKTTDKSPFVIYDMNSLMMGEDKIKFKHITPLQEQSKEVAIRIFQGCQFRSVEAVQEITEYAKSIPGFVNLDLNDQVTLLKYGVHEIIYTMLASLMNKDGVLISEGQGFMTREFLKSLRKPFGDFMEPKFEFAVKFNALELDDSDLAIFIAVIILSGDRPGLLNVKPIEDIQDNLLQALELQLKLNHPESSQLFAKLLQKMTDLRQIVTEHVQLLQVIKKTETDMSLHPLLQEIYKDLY
# Assay: PPARγ ligand binding assay utilizing [3H]-BRL 49653 as the radioligand
# Conditions: concentration required to reduce by 50% the specific binding of [3H]-BRL 49653
# Description: The compounds of the present invention can be evaluated for modulation of the PPARγ receptor using assays such as those described in Jiang, et al., Nature 391:82-86 (1998), Ricote, et al., Nature 391:79-82 (1998) and Lehmann, et al., J. Biol. Chem. 270(12): 12953-12956 (1995). Alternatively, the compounds can be evaluated for their ability to displace radiolabeled BRL 49653 from a PPARγ-GST fusion protein as follows:
# PPARγ-GST fusion protein (prepared according to standard procedures), [^3H]—BRL 49653 having 50 Ci/mmol specific activity, Polyfiltronics Unifilter 350 filtration plate and glutathione-Sepharose® beads (from Pharmacia: washed twice with 10× binding buffer in which BSA and DTI can be left out).
# Binding buffer (10 mM Tris-HCl, pH 8.0, 50 mM KCI, 10 mM DTT, 0.02% BSA and 0.01% NP-40) is added in 80-μL amounts to the wells of the filtration plate. The test compound is then added in 10 μL of DMSO. The PPARγ-GST fusion protein and radiolabeled BRL compound are premixed in binding buffer containing 10 mM DTT and added in 10-μL amounts to the wells of the plate to provide final concentrations of 1 μg/well of PPARγ-GST fusion protein and 10 nM [^3H]—BRL 49653 compound. The plate is incubated for 15 min. Glutathione-agarose bead is added in 50 μL of binding buffer, and the plate is vigorously shaken for one hour. The plate is washed four times with 200 μL/well of binding buffer (without BSA and DTT). The bottom of the plate is sealed and 200 μL/well of scintillation cocktail is added. The top of the plate is then sealed and the radioactivity is determined.
# IC50 values are defined as the concentration of test compounds required to reduce by 50% the specific binding of [^3H]—BRL 49653 and are represented by (+) <30 μM; (++) <10 μM; (+++) <1 μM.
row,pIC50,Compound
1,> 6.00,O=S(=O)(Nc1cc(Cl)c(Sc2cnc3ccccc3c2)c(Cl)c1)c1ccc(Cl)cc1Cl [Compound 4.1]
2,> 6.00,O=S(=O)(Nc1cc(Cl)c(Sc2cnc3ccccc3c2)c(Cl)c1)c1ccccc1 [Compound 4.2]
3,> 6.00,O=S(=O)(Nc1cc(Cl)c(Sc2cnc3ccccc3c2)c(Cl)c1)c1ccc(C(F)(F)F)cc1Cl [Compound 4.3]
4,> 6.00,O=S(=O)(Nc1cc(Cl)c([S+]([O-])c2cnc3ccccc3c2)c(Cl)c1)c1ccc(Cl)cc1Cl (stereo not drawn) [Compound 5.2]
5,5.00 to 6.00,O=S(=O)(Nc1cc(Cl)c([S+]([O-])c2cnc3ccccc3c2)c(Cl)c1)c1ccccc1 (stereo not drawn) [Compound 5.3]
6,> 6.00,"COC(=O)c1ccc2ncc(Oc3c(Cl)cc(NS(=O)(=O)c4ccc(Cl)cc4Cl)cc3Cl)cc2c1 [Compound 45, 3-[2,6-Dichloro-4-(2,4-dichloro-benzenesulfonylamino)-phenoxy]-quinoline-6-carboxylic acid methyl ester]"
7,> 6.00,"COC(=O)c1cccc2cc(Oc3c(Cl)cc(NS(=O)(=O)c4ccc(Cl)cc4Cl)cc3Cl)cnc12 [Compound 46, 3-[2,6-Dichloro-4-(2,4-dichloro-benzenesulfonylamino)-phenoxy]-quinoline-8-carboxylic acid methyl ester]"
8,> 6.00,"Cc1cc(S(=O)(=O)Nc2cc(F)c(Oc3cnc4ccccc4c3)c(Cl)c2)c(Cl)cc1Cl [Compound 50, N-[3-Chloro-5-fluoro-4-(quinolin-3-yloxy)phenyl]-2,4-dichloro-5-methyl-benzenesulfonamide]"
9,> 6.00,O=S(=O)(Nc1cc(Cl)c(Nc2nc3ccc(Cl)cc3s2)c(Cl)c1)c1ccc(Cl)cc1Cl [Compound 71]
10,> 6.00,Cc1ccc2nc(Nc3c(Cl)cc(NS(=O)(=O)c4ccc(C(F)(F)F)cc4Cl)cc3Cl)sc2c1 [Compound 86]
11,> 6.00,"O=S(=O)(Nc1cc(Cl)c(Cc2ccc3ccccc3n2)c(Cl)c1)c1ccc(C(F)(F)F)cc1Cl [Compound 224, 2-Chloro-N-(3,5-dichloro-4-quinolin-2-ylmethyl-phenyl)-4-trifluoromethyl-benzenesulfonamide]"
12,> 6.00,"O=S(=O)(Nc1cc(Cl)c(Cc2ccc3ccccc3n2)c(Cl)c1)c1ccc(Cl)cc1Cl [Compound 225, 2,4-Dichloro-N-(3,5-dichloro-4-quinolin-2-ylmethyl-phenyl)-benzenesulfonamide]"
13,> 6.00,"Cc1cc(S(=O)(=O)Nc2cc(Cl)c(Cc3ccc4ccccc4n3)c(Cl)c2)c(Cl)cc1Cl [Compound 226, 2,4-Dichloro-N-(3,5-dichloro-4-quinolin-2-ylmethyl-phenyl)-5-methyl-benzenesulfonamide]"
14,> 6.00,"O=S(=O)(Nc1cc(Cl)c(Cc2cnc3ccccc3c2)c(Cl)c1)c1ccc(C(F)(F)F)cc1Cl [Compound 231, 2-Chloro-N-(3,5-dichloro-4-quinolin-3-ylmethyl-phenyl)-4-trifluoromethyl-benzenesulfonamide]"
15,> 6.00,"O=S(=O)(Nc1cc(Cl)c(Cc2cnc3ccccc3c2)c(Cl)c1)c1ccc(Cl)cc1Cl [Compound 232, 2,4-Dichloro-N-(3,5-dichloro-4-quinolin-3-ylmethyl-phenyl)-benzenesulfonamide]"
16,> 6.00,"O=S(=O)(Nc1cc(Cl)c(Cc2cc3ccccc3cn2)c(Cl)c1)c1ccc(C(F)(F)F)cc1Cl [Compound 237, 2-Chloro-N-(3,5-dichloro-4-isoquinolin-3-ylmethyl-phenyl)-4-trifluoromethyl-benzenesulfonamide]"

row,pIC50,Compound
1,> 6.00,"O=S(=O)(Nc1cc(Cl)c(Cc2cc3ccccc3cn2)c(Cl)c1)c1ccc(Cl)cc1Cl [Compound 238, 2,4-Dichloro-N-(3,5-dichloro-4-isoquinolin-3-ylmethyl-phenyl)-benzenesulfonamide]"
2,5.00 to 6.00,"O=S(=O)(Nc1cc(Cl)cc(Oc2nc3cc(Cl)ccc3s2)c1)c1ccc(C(F)(F)F)cc1Cl [Compound 283, 2-Chloro-N-[3-chloro-5-(5-chloro-benzothiazol-2-yloxy)-phenyl]-4-trifluoromethyl-benzenesulfonamide]"
3,> 6.00,"O=S(=O)(Nc1cc(Cl)cc(Oc2nc3cc(Cl)ccc3s2)c1)c1ccc(Cl)cc1Cl [Compound 284, 2,4-Dichloro-N-[3-chloro-5-(5-chloro-benzothiazol-2-yloxy)-phenyl]-benzenesulfonamide]"
4,> 6.00,"Cc1cc(S(=O)(=O)Nc2cc(Cl)cc(Oc3nc4cc(Cl)ccc4s3)c2)c(Cl)cc1Cl [Compound 285, 2,4-Dichloro-N-[3-chloro-5-(5-chloro-benzothiazol-2-yloxy)-phenyl]-5-methyl-benzenesulfonamide]"
5,5.00 to 6.00,"N#Cc1ccc2sc(Oc3cc(Cl)cc(NS(=O)(=O)c4ccc(C(F)(F)F)cc4Cl)c3)nc2c1 [Compound 286, 2-Chloro-N-[3-chloro-5-(5-cyano-benzothiazol-2-yloxy)-phenyl]-4-trifluoromethyl-benzenesulfonamide]"
6,> 6.00,"N#Cc1ccc2sc(Oc3cc(Cl)cc(NS(=O)(=O)c4ccc(Cl)cc4Cl)c3)nc2c1 [Compound 287, 2,4-Dichloro-N-[3-chloro-5-(5-cyano-benzothiazol-2-yloxy)-phenyl]-benzenesulfonamide]"
7,> 6.00,"Cc1cc(S(=O)(=O)Nc2cc(Cl)cc(Oc3nc4cc(C#N)ccc4s3)c2)c(Cl)cc1Cl [Compound 288, 2,4-Dichloro-N-[3-chloro-5-(5-cyano-benzothiazol-2-yloxy)-phenyl]-5-methyl-benzenesulfonamide]"
8,> 6.00,"O=S(=O)(Nc1cc(Cl)cc(Oc2nc3cc(-c4nnn[nH]4)ccc3s2)c1)c1ccc(C(F)(F)F)cc1Cl [Compound 289, 2-Chloro-N-{3-chloro-5-[5-(1H-tetrazol-5-yl)-benzothiazol-2-yloxy]-phenyl}-4-trifluoromethyl-benzenesulfonamide]"
9,4.52 to 5.00,"O=S(=O)(Nc1cc(Cl)cc(Oc2nc3c(Cl)cccc3s2)c1)c1ccc(C(F)(F)F)cc1Cl [Compound 290, 2-Chloro-N-[3-chloro-5-(4-chloro-benzothiazol-2-yloxy)-phenyl]-4-trifluoromethyl-benzenesulfonamide]"
10,4.52 to 5.00,"O=S(=O)(Nc1cc(Cl)cc(Oc2nc3c(Cl)cccc3s2)c1)c1ccc(Cl)cc1Cl [Compound 291, 2,4-Dichloro-N-[3-chloro-5-(4-chloro-benzothiazol-2-yloxy)-phenyl]-benzenesulfonamide]"
11,5.00 to 6.00,"Cc1cc(S(=O)(=O)Nc2cc(Cl)cc(Oc3nc4c(Cl)cccc4s3)c2)c(Cl)cc1Cl [Compound 292, 2,4-Dichloro-N-[3-chloro-5-(4-chloro-benzothiazol-2-yloxy)-phenyl]-5-methyl-benzenesulfonamide]"
12,> 6.00,"Cc1cccc2sc(Oc3cc(Cl)cc(NS(=O)(=O)c4ccc(C(F)(F)F)cc4Cl)c3)nc12 [Compound 293, 2-Chloro-N-[3-chloro-5-(4-methyl-benzothiazol-2-yloxy)-phenyl]-4-trifluoromethyl-benzenesulfonamide]"
13,4.52 to 5.00,"Cc1cccc2sc(Oc3cc(Cl)cc(NS(=O)(=O)c4ccc(Cl)cc4Cl)c3)nc12 [Compound 294, 2,4-Dichloro-N-[3-chloro-5-(4-methyl-benzothiazol-2-yloxy)-phenyl]-benzenesulfonamide]"
14,5.00 to 6.00,"Cc1cc(S(=O)(=O)Nc2cc(Cl)cc(Oc3nc4c(C)cccc4s3)c2)c(Cl)cc1Cl [Compound 295, 2,4-Dichloro-N-[3-chloro-5-(4-methyl-benzothiazol-2-yloxy)-phenyl]-5-methyl-benzenesulfonamide]"
15,5.00 to 6.00,"COc1cccc2sc(Oc3cc(Cl)cc(NS(=O)(=O)c4ccc(C(F)(F)F)cc4Cl)c3)nc12 [Compound 296, 2-Chloro-N-[3-chloro-5-(4-methoxy-benzothiazol-2-yloxy)-phenyl]-4-trifluoromethyl-benzenesulfonamide]"
16,5.00 to 6.00,"COc1cccc2sc(Oc3cc(Cl)cc(NS(=O)(=O)c4ccc(Cl)cc4Cl)c3)nc12 [Compound 297, 2,4-Dichloro-N-[3-chloro-5-(4-methoxy-benzothiazol-2-yloxy)-phenyl]-benzenesulfonamide]"

row,Compound,pIC50
1,"2,4-Dichloro-N-[3,5-dichloro-4-(6-methyl-quinoln-3-yloxy)-phenyl]-5-methyl-benzenesulfonamide [Compound 49]",> 6.00

# Source: patent US7960408B2, “Quinolinyl and benzothiazolyl modulators” (Amgen Inc., priority 2000, dated 2011)
